Measured values published in US20240365784A1, “AZOLE COMPOUNDS FOR CONTROLLING INVERTEBRATE PESTS” (FMC Corporation, priority 2021, published 2024).

How the values were obtained:
[1] = system: Brown Planthopper (Nilaparvata lugens (Stil)); test: Test F: control of Brown Planthopper, spray, contact and/or systemic; format: in vivo; conditions: 120 h, sprayed at 10 ppm, rice stems, nymphs, assessed after 5 days
Protocol: (§1) Test compounds were formulated using a solution containing 10% acetone, 90% water and 300 ppm Activator 90® non-ionic surfactant (Loveland Products, Loveland, Colorado, USA). The formulated compounds were applied in 1 mL of liquid through an atomizer nozzle positioned 1.27 cm (0.5 inches) above the top of each test unit. Test compounds were sprayed at the rates indicated, and each test was replicated three times.
For evaluating control of Brown Planthopper (Nilaparvata lugens (Stil)) through contact and/or systemic means, the test unit consisted of a small open container with 6-10 25-day-old rice stems inside. White sand was added to the top of the soil prior to application of the test compound.
Test compounds were formulated and sprayed at 50 ppm and/or 10 ppm. After spraying of the formulated test compound, the test units were allowed to dry for 1 h before they were post-infested with ˜15-20 nymphs (15-to-17-day-old). A black, screened cap was placed on the top of each test unit, and the test units were held for 5 days in a growth chamber at 28° C. and 65% relative humidity. Each test unit was then visually assessed for insect mortality.

[2] = system: green peach aphid (Myzus persicae (Sulzer)); test: whole plant or invertebrate; format: in vivo; conditions: 144 h, tested at 10 ppm, radish plant, assessed after 6 days
[3] = system: cotton melon aphid (Aphis gossypii (Glover)); test: whole plant or invertebrate; format: in vivo; conditions: 144 h, okra plant, assessed after 6 days; for mortality at 50 ppm: sprayed at 50 ppm; for mortality at 10 ppm: tested at 10 ppm
Protocol: as §1
For evaluating control of cotton melon aphid (Aphis gossypii (Glover)) through contact and/or systemic means, the test unit consisted of a small open container with a 5-day-old okra plant inside. This was pre-infested with 30-40 insects on a piece of leaf according to the cut-leaf method, and the soil of the test unit was covered with a layer of sand.
[…] After spraying, the test units were maintained in a growth chamber for 6 days at 19° C. and 70% relative humidity. Each test unit was then visually assessed for insect mortality.

[4] = system: green peach aphid (Myzus persicae (Sulzer)); test: whole plant or invertebrate; format: in vivo; conditions: 144 h, sprayed at 50 ppm, radish plant, assessed after 6 days
Protocol: as §1
For evaluating control of green peach aphid (Myzus persicae (Sulzer)) through contact and/or systemic means, the test unit consisted of a small open container with a 12-15-day-old radish plant inside. This was pre-infested by placing on a leaf of the test plant 30-40 aphids on a piece of leaf excised from a culture plant (cut-leaf method). The aphids moved onto the test plant as the leaf piece desiccated. After pre-infestation, the soil of the test unit was covered with a layer of sand.
Test compounds were formulated and sprayed at 250 and/or 50 ppm. After spraying of the formulated test compound, each test unit was allowed to dry for 1 hour and then a black, screened cap was placed on top. The test units were held for 6 days in a growth chamber at 19-21° C. and 50-70% relative humidity. Each test unit was then visually assessed for insect mortality.

[5] = system: corn planthopper (Peregrinus maidis (Ashmead)); test: whole plant or invertebrate; format: in vivo; conditions: 144 h, corn plant, nymphs, assessed after 6 days; for mortality at 10 ppm: sprayed at 10 ppm; for mortality at 50 ppm: sprayed at 50 ppm
Protocol: as §1
For evaluating control of corn planthopper (Peregrinus maidis (Ashmead)) through contact and/or systemic means, the test unit consisted of a small open container with a 3-4-day-old corn (maize) plant inside. White sand was added to the top of the soil prior to application of the test compound.
Test compounds were formulated and sprayed at 250 and/or 50 ppm and/or 10 ppm. After spraying of the formulated test compound, the test units were allowed to dry for 1 h before they were post-infested with ˜15-20 nymphs (18-to-21-day-old). A black, screened cap was placed on the top of each test unit, and the test units were held for 6 days in a growth chamber at 22-24° C. and 50-70% relative humidity. Each test unit was then visually assessed for insect mortality.

[6] = system: potato leafhopper (Empoasca fabae (Harris)); test: Test B: control of potato leafhopper, spray, contact and/or systemic; format: in vivo; conditions: tested at 50 ppm; Soleil bean plant, adults, assessed after 6 days
Protocol: as §1
Each test unit was then visually assessed for insect mortality.

[7] = system: sweetpotato whitefly (Bemisia tabaci (Gennadius)); test: whole plant or invertebrate; format: in vivo; conditions: 312 h, cotton plant infested with eggs, assessed after 13 days; for mortality at 50 ppm: sprayed at 50 ppm; for mortality at 10 ppm: tested at 10 ppm
Protocol: as §1
For evaluating control of the sweetpotato whitefly (Bemisia tabaci (Gennadius)) through contact and/or systemic means, the test unit consisted of a small open container with a 12-14-day-old cotton plant inside. Prior to the spray application, both cotyledons were removed from the plant, leaving one true leaf for the assay. Adult whiteflies were allowed to lay eggs on the plant and then were removed from the test unit. Cotton plants infested with at least 15 eggs were submitted to the test for spraying.
[…] After spraying, the test units were allowed to dry for 1 hour. The cylinders were then removed, and the units were taken to a growth chamber and held for 13 days at 28° C. and 50-70% relative humidity. Each test unit was then visually assessed for insect mortality.

melting point [°C] | SMILES | mortality at 10 ppm [1] [%] | mortality at 10 ppm [2] [%] | mortality at 50 ppm [3] [%] | mortality at 10 ppm [3] [%] | mortality at 50 ppm [4] [%] | mortality at 10 ppm [5] [%] | mortality at 50 ppm [5] [%] | mortality [6] | mortality at 50 ppm [7] [%] | mortality at 10 ppm [7] [%]
 | Fc1cncc(-n2nccn2)c1Cc1ccc(SC(F)(F)F)cc1 [Compound 2] | ≥ 80 | ≥ 80 | ≥ 80 | ≥ 80 | ≥ 80 | ≥ 80 | ≥ 80 |  |  | 
 | Cc1cnn(-c2cncc(F)c2Cc2ccc(OC(F)(F)F)cc2)n1 [Compound 3, 3-fluoro-5-(4-methyltriazol-2-yl)-4-[[4-(trifluoromethoxy)phenyl]methyl]pyridine] |  |  |  |  |  |  |  | at least 80% |  | 
 | FC(F)(F)Sc1ccc(Cc2c(Cl)cncc2-n2nccn2)cc1 [Compound 5] | ≥ 80 | ≥ 80 | ≥ 80 |  | ≥ 80 | ≥ 80 | ≥ 80 |  | ≥ 70 | ≥ 70
 | Fc1cncc(-n2cccn2)c1Cc1ccc(SC(F)(F)F)cc1 [Compound 19] | ≥ 80 |  | ≥ 80 | ≥ 80 | ≥ 80 | ≥ 80 |  |  | ≥ 70 | ≥ 70
 | FC(F)(F)Sc1ccc(Cc2c(Cl)cncc2-n2cccn2)cc1 [Compound 20] | ≥ 80 |  | ≥ 80 | ≥ 80 | ≥ 80 | ≥ 80 | ≥ 80 |  | ≥ 70 | ≥ 70
 | FC(F)(F)Sc1ccc(Cc2c(Cl)cncc2-n2cncn2)cc1 [Compound 21] |  | ≥ 80 | ≥ 80 |  | ≥ 80 |  |  |  | ≥ 70 | ≥ 70
 | Fc1cncc(-n2cncn2)c1Cc1ccc(SC(F)(F)F)cc1 [Compound 24] |  | ≥ 80 | ≥ 80 |  | ≥ 80 |  |  |  |  | 
 | FC(F)(F)Sc1ccc(Cc2c(Br)cncc2-n2nccn2)cc1 [Compound 26] | ≥ 80 | ≥ 80 | ≥ 80 | ≥ 80 | ≥ 80 | ≥ 80 | ≥ 80 |  | ≥ 70 | ≥ 70
81 to 84 | [O-][S+](c1ccc(Cc2ccncc2-n2nccn2)cc1)C(F)(F)F (centres unmarked) [Compound 28] |  |  |  |  |  |  |  |  |  | 
80 to 83 | Fc1cncc(-n2nccn2)c1Cc1ccc(Br)cc1 [Compound 31] |  |  |  |  |  |  |  |  |  | 
 | Fc1cc(Cc2c(Cl)cncc2-n2nccn2)ccc1OC(F)(F)F [Compound 70] |  | ≥ 80 | ≥ 80 | ≥ 80 | ≥ 80 | ≥ 80 | ≥ 80 |  |  | 
